Experimental data from the CheMixHub viscosity set.

Experiment: xn = mol fraction of the nth substance listed

CCC#N + CC(C)(C)O
viscosity [mPa·s], 101 kPa
Conditions | x2 = 0.0744 | x2 = 0.1541 | x2 = 0.2403 | x2 = 0.3272 | x2 = 0.4258 | x2 = 0.5242 | x2 = 0.6146 | x2 = 0.7448 | x2 = 0.8667
298.15 K | 0.4226 | 0.4462 | 0.4934 | 0.5641 | 0.6672 | 0.8059 | 1.024 | 1.526 | 2.346
303.15 K | 0.4138 | 0.4431 | 0.487 | 0.5397 | 0.6276 | 0.739 | 0.9208 | 1.34 | 2.022
308.15 K | 0.3997 | 0.4317 | 0.4754 | 0.5219 | 0.5918 | 0.6821 | 0.8394 | 1.186 | 1.741

Cc1ccccc1C + CC(C)(C)O
308.15 K, 101 kPa
Conditions | viscosity [mPa·s]
x2 = 0.0632 | 0.669
x2 = 0.1246 | 0.679
x2 = 0.204 | 0.677
x2 = 0.2992 | 0.674
x2 = 0.3725 | 0.731
x2 = 0.4258 | 0.777
x2 = 0.4948 | 0.814
x2 = 0.5942 | 0.908
x2 = 0.6887 | 1.028
x2 = 0.7935 | 1.376
x2 = 0.9065 | 1.962

OCCOCCOCCO + CC(C)=O
298.1 K, 101 kPa
Conditions | viscosity [mPa·s]
x1 = 0.2 | 1.038
x1 = 0.4 | 2.75
x1 = 0.5 | 4.48
x1 = 0.6 | 7.168
x1 = 0.8 | 17.04

c1ccc(Oc2ccccc2)cc1 + CC(C)=O
298.15 K, 101 kPa
Conditions | viscosity [mPa·s]
x2 = 0.4843 | 1.339
x2 = 0.7306 | 0.714
x2 = 0.894 | 0.439

Cc1ccccc1C + CC(C)CC(C)(C)C
308.15 K, 101 kPa
Conditions | viscosity [mPa·s]
x2 = 0.1337 | 0.6095
x2 = 0.2492 | 0.5663
x2 = 0.3373 | 0.539
x2 = 0.4352 | 0.5141
x2 = 0.5589 | 0.4878
x2 = 0.6421 | 0.4734
x2 = 0.7365 | 0.4602
x2 = 0.8167 | 0.4525
x2 = 0.917 | 0.4417

Cc1ccccc1C + CC(C)CO
308.15 K, 101 kPa
Conditions | viscosity [mPa·s]
x2 = 0.0649 | 0.669
x2 = 0.1278 | 0.681
x2 = 0.2187 | 0.684
x2 = 0.3335 | 0.77
x2 = 0.4418 | 0.851
x2 = 0.5688 | 0.986
x2 = 0.6291 | 1.064
x2 = 0.7214 | 1.215
x2 = 0.8196 | 1.486
x2 = 0.9023 | 1.835
x2 = 0.9616 | 2.245

OCCOCCOCCO + CC(C)O
viscosity [mPa·s], 100 kPa
Conditions | x1 = 0.081 | x1 = 0.1598 | x1 = 0.2401 | x1 = 0.3501 | x1 = 0.44 | x1 = 0.5601 | x1 = 0.6501 | x1 = 0.74 | x1 = 0.8498 | x1 = 0.9398
293.15 K | 4.61 | 6.73 | 9.06 | 12.51 | 15.58 | 20.36 | 24.67 | 29.58 | 36.45 | 43.07
298.15 K | 3.54 | 5.11 | 6.84 | 9.44 | 11.82 | 15.58 | 18.9 | 22.75 | 28.15 | 33.34
303.15 K | 3.21 | 4.58 | 5.98 | 8.15 | 10.07 | 13.01 | 15.62 | 18.54 | 22.62 | 26.49
308.15 K | 2.65 | 3.73 | 4.95 | 6.7 | 8.26 | 10.68 | 12.73 | 15.05 | 18.28 | 21.38
313.15 K | 2.22 | 3.12 | 4.05 | 5.45 | 6.71 | 8.67 | 10.32 | 12.22 | 14.86 | 17.32
318.15 K | 1.97 | 2.79 | 3.63 | 4.83 | 5.88 | 7.5 | 8.82 | 10.32 | 12.42 | 14.36
323.15 K | 1.8 | 2.54 | 3.32 | 4.44 | 5.39 | 6.74 | 7.86 | 9.07 | 10.68 | 12.14
